Tests used:
[1] = tested on: MIN6 cells; assay: Glucose stimulated insulin secretion in highly passaged MIN6 cells; type: cell-based, mouse; settings: FIG. 20, 21
Protocol: The differentiated cells were washed twice with warm PBS. After pre-incubation with Krebs-Ringer buffer at 37° C. for 90 min, the cells were incubated at 37° C. for 60 min with basal D-glucose (2.75 mM) or stimulus D-glucose (27.5 mM). Then each conditioned medium was collected to determine the insulin concentration using an insulin ELISA kit (Mercodia AB, Uppsala, Sweden). MIN6 cells were routinely maintained in a published protocol which contains Dulbecco's modified Eagle's medium (DMEM) containing 25 mM glucose, supplemented with 10% fetal calf serum, 2 mM L-glutamine, 25 mM Hepes, and 285 μM 2-mercaptoethanol. MIN6 cells presented in this study were at passages 30-40 (low passage, LP) or passages 60-70 (high passage, HP). All assays used MIN6 grown to 70-80% confluence unless otherwise stated.

[2] = tested on: NeuroD; assay: qRT-PCR of genes in matured insulin-secreting cells; type: cell-based, mouse; settings: β-like cells treated with calcitriol
Protocol: Real time quantitative RT-PCR analysis was carried out using power SYBR Green PCR Master Mix and SYBR® Green Cells-to-Ct™ Kits purchased from Applied Biosystems (Foster City, USA). cDNA was amplified by PCR: 95° C. for 10 min, followed by 40 cycles of 95° C. for 15 sec and 60° C. for 1 min. The number of cycles of threshold (Ct) was measured with an ABI Prism 7900HT Sequence Detection System (Applied Biosystems) or a Rotor-Gene RG-3000 (Corbet Research, Sydney, Australia). All quantifications (ΔCt) were normalized with the internal 18s rRNA level (2^−Δct). Nic-containing differentiation medium was removed from the differentiated β-like cells. A warmed maturation medium was added to the differentiated cells. The maturation medium is Dulbecco's Modified Eagle Medium (Invitrogen) with 5.75 mM D-glucose without nicotinamide (10 mM), 2% B27 (Invitrogen) and 100 μg/ml streptomycin and 100 units/ml penicillin supplemented with calcitriol (10 nM). Cultures were incubated in 10% CO2 90% air at 37° C., for 4 days.

[3] = tested on: differentiated β-like cells; assay: Maturation of differentiated β-like cells, glucose stimulated insulin secretion; type: cell-based, mouse; settings: calcitriol 10 nM, 4 days; glucose 2.75 / 27.5 mM (FIG. 19)
Protocol: The differentiated cells were washed twice with warm PBS. After pre-incubation with Krebs-Ringer buffer at 37° C. for 90 min, the cells were incubated at 37° C. for 60 min with basal D-glucose (2.75 mM) or stimulus D-glucose (27.5 mM). Then each conditioned medium was collected to determine the insulin concentration using an insulin ELISA kit (Mercodia AB, Uppsala, Sweden). Nic-containing differentiation medium was removed from the differentiated β-like cells. A warmed maturation medium was added to the differentiated cells. The maturation medium is Dulbecco's Modified Eagle Medium (Invitrogen) with 5.75 mM D-glucose without nicotinamide (10 mM), 2% B27 (Invitrogen) and 100 μg/ml streptomycin and 100 units/ml penicillin supplemented with calcitriol (10 nM). Cultures were incubated in 10% CO2 90% air at 37° C., for 4 days.

[4] = tested on: Ngn3+ islet progenitors; assay: DsRed+ cell differentiation from purified Ngn3-GFP+ progenitors (Ngn3-GFP/RIP-DsRed mice); type: cell-based, mouse; settings: calcitriol 10 nM with or without Nic 10 mM, day 4 (FIG. 17)
Source text: Approximately 7,500 E15.5 [at which the number of Ngn3^+ progenitors is peaked] mouse fetuses from both MIPGFP and Ngn3-GPF/RIP-DsRed lines were used for enrichment/purification of Ngn3^+ progenitors. Mouse pancreases were dissected under a stereoscope (Olympus, Tokyo, Japan). Eleven human fetal pancreases were collected from 18-22 week-fetuses (Table 1) and minced. Both mouse and human pancreases were enzymatically dissociated into single cells under aseptic conditions. Rat anti-E-cadherin (E-cad, also known as CD324 or uvomorulin) monoclonal antibody IgG2a (Invitrogen, Carlsbad), Alexa Fluor 647 anti-E-cad (eBioscience), rat anti-integrin α6 subunit (α6, also known as CD49f) mAb IgG2a, phycoerythrin (PE) rat anti-human α6 (Becton Dickson Biosciences, San Jose), PE anti-mouse CD133 (also known as prominin I, eBioscience), biotin rabbit anti-rat immunoglobumins, allophycocyanin (APC) rat anti-mouse CD45 and APC rat anti-mouse TER119 and streptavidin APC-Cy7, streptavidin PE-Texas Red, streptavidin APC (BD Biosciences) or streptavidin Alexa Fluor 750 (Invitrogen), were used. After each incubation with antibodies, cells were washed twice with FACS buffer (0.1% bovine serum albumin in phosphate buffered saline) and finally re-suspended in this buffer containing 1 μg/ml propidium iodide (PI) or 4′,6-diamidino-2-phenylindole (DAPI) for sorting (FACSAria II, Becton Dickson Labware, Bedford). The purity of sorted cells was determined by post-sort analysis. Data presented represented cell samples with over 90% purity.
Sorted β-cell progenitor-enriched cells or Ngn3^+ β-cell progenitors were differentiated in 96-, 12- or 6-well plates (BD Labware). The basal differentiation medium is Dulbecco's Modified Eagle Medium (Invitrogen) with 5.75 or 27.5 mM D-glucose supplemented with 1% B27 (Invitrogen) and 100 μg/ml streptomycin and 100 units/ml penicillin. Growth factor-reduced Matrigel (200 μg/ml, BD Biosciences) was overlayed onto cells in the presence of various potential regulators. […]
The number of β-like cells was directly quantified under a fluorescence microscope. […]

[5] = versus calcitriol; cited from earlier work

Row | SMILES | glucose stimulated insulin secretion (GSIS) in dedifferentiated, highly passaged MIN6 cells [1] | NeuroD expression [2] | maturation of differentiated β-like cells (GSIS) [3] | β-cell differentiation of Ngn3+ islet progenitors (number of DsRed+ cells) [4] | hypercalcaemic effect, fold less [5]
1 | C=C1/C(=C\C=C2/CCC[C@]3(C)[C@@H]([C@H](C)CCCC(C)(C)O)CC[C@@H]23)C[C@@H](O)C[C@@H]1O [Calcitriol, 1, 25 (OH)2 vitamin D3] | partially restores GSIS | further up-regulated | promoted the maturation | does not promote β-cell differentiation | 
2 | C[C@H](CC#CC(C)(C)O)[C@H]1CC[C@@H]2/C(=C/C=C3C[C@@H](O)C[C@H](O)C3)CCC[C@@]21C [Inecalcitol, 19-nor-14-epi-23-yne calcitriol] |  |  |  |  | 480 fold

Source: patent US10568913B2, “Method for generating mature β-like cells” (The University of Western Australia, priority 2013, dated 2020)
